Structures can show the parent of a compound that is named as a salt.
Test system: patients with a solid tumour
Test: Phase I study, toxicity (CTC criteria) of GI147211 30 min i.v. infusion daily x 5 every 3 weeks
Format: in vivo, human
Excerpt: British Journal of Cancer (1996) 73, 744-750 O (C? 1996 Stockton Press All rights reserved 0007-0920/96 $12.00 Phase I and pharmacological study of the new topoisomerase I inhibitor G1147211, using a daily x 5 intravenous administration CJH Gerrits', GJ Creemers', JHM Schellens', P Wissel2, AS Th Planting', R Kunka2, K Selinger2, M de Boer-Dennert', Y Marijnen3, M Harteveld' and J Verweijl 'Department of Medical Oncology, Rotterdam Cancer Institute, Rotterdam, The Netherlands; 2Glaxo Wellcome Inc, Department of Clinical Pharmacology, NC, USA; 3Glaxo Wellcome Inc, Department of Clinical Research, Zeist, The Netherlands. Summary Topoisomerase I inhibitors are interesting anti-cancer agents with a novel mechanism of action. […] In subsequent patient cohorts the dose was escalated from 0.3 to 1.5 mg m-2 day-'. Pharmacokinetics analysis was performed on days 1 and 4 of the first course using a validated high- performance liquid chromatographic assay and non-compartmental methods. […] Its further development was stopped because of unpredictable and severe myelosuppression, gastrointestinal toxicity and haemorrhagic cystitis. In the late 1980s two discoveries brought about a renewal of interest in CPT; firstly, topoisomerase I was identified as the single cellular target of CPT (Hsiang et al., 1985; Hsiang and Liu, 1988) and, secondly, an overexpression of topoisomerase I was found in various tumour cell lines but not in normal tissues (Giovanella et al., 1989; Hirabayaski et al., 1992; Potmesil et al., 1988). Topoisomerase I is a nuclear enzyme that resolves topological problems of the torsionally strained (supercoiled) DNA (Slichenmyer et al., 1993). This is achieved by forming a covalent adduct between topoisome- rase I and the DNA, termed the cleavable complex. This catalytic intermediate creates single-strand DNA breaks, allowing the DNA molecule to rotate around the intact DNA strand at the cleavage site, leading to a relaxation of the DNA molecule and in this way replication, transcription and other DNA functions can proceed. These enzyme- bridged breaks are then resealed by topoisomerase I. CPT stabilises the cleavable complexes, thereby preventing resealing of single-strand DNA breaks in the presence of the drug (Covey et al., 1989; D'Arpa and Liu, 1989; Eng et al., 1988). Cytotoxicity is specific to the S-phase of the cell cycle because the double-strand breaks that occur during this phase are more difficult to repair in the presence of the drug (Horwitz and Horwitz, 1973). […] Other eligibility criteria included: (1) age>, 18 years; (2) an Eastern Cooperative Oncology Group (ECOG) performance status <2; (3) a predicted life expectancy of at least 3 months; (4) no previous anti-cancer therapy for at least 3 weeks (6 weeks for previous nitro- soureas or mitomycin C); (5) adequate haemato- poietic (WBC) 3 x 109 -', ANC > 1.5 x 109 1-' and platelets 100 x 10 1- 1), hepatic (bilirubin within normal limits, AST, ALT and/or alkaline phosphatase < 2.0 x normal), and renal (serum creatinine < 130 imol 1-') functions. All patients gave written informed consent.

[1] = 0.3 mg m-2 day-1, 3 patients, 10 evaluable courses
[2] = 0.6 mg m-2 day-1, 3 patients, 18 evaluable courses
[3] = 0.9 mg m-2 day-1, 3 patients, 9 evaluable courses
[4] = 1.2 mg m-2 day-1, 6 patients, 15 evaluable courses
[5] = 1.2 mg m-2 day-1, n=6, Table III
[6] = 1.2 mg m-2 day-1, n=7, Table III
[7] = 1.5 mg m-2 day-1, 6 patients, 15 evaluable courses
[8] = 1.5 mg m-2 day-1, n=7, Table III
[9] = 1.5 mg m-2 day-1, n=13, Table III

CC[C@@]1(O)C(=O)OCc2c1cc1n(c2=O)Cc2c-1nc1cc3c(cc1c2CN1CCN(C)CC1)OCCO3 [GI147211, [7 - (methylpiperazinomethylene) - 10,11 - ethylene-dioxy-20(S)] camptothecin dihydrochloride]
Leucocytes CTC grade 1, number of courses [1]: 0 | Leucocytes CTC grade 2, number of courses [1]: 0 | Leucocytes CTC grade 3, number of courses [1]: 0 | Leucocytes CTC grade 4, number of courses [1]: 0 | Neutrophils CTC grade 1, number of courses [1]: 0 | Neutrophils CTC grade 2, number of courses [1]: 0 | Neutrophils CTC grade 3, number of courses [1]: 0 | Neutrophils CTC grade 4, number of courses [1]: 0 | Platelets CTC grade 1, number of courses [1]: 0 | Platelets CTC grade 2, number of courses [1]: 0 | Platelets CTC grade 3, number of courses [1]: 0 | Platelets CTC grade 4, number of courses [1]: 0 | Leucocytes CTC grade 1, number of courses [2]: 8 | Leucocytes CTC grade 2, number of courses [2]: 0 | Leucocytes CTC grade 3, number of courses [2]: 0 | Leucocytes CTC grade 4, number of courses [2]: 0 | Neutrophils CTC grade 1, number of courses [2]: 4 | Neutrophils CTC grade 2, number of courses [2]: 1 | Neutrophils CTC grade 3, number of courses [2]: 0 | Neutrophils CTC grade 4, number of courses [2]: 0 | Platelets CTC grade 1, number of courses [2]: 1 | Platelets CTC grade 2, number of courses [2]: 0 | Platelets CTC grade 3, number of courses [2]: 0 | Platelets CTC grade 4, number of courses [2]: 0 | Leucocytes CTC grade 1, number of courses [3]: 3 | Leucocytes CTC grade 2, number of courses [3]: 1 | Leucocytes CTC grade 3, number of courses [3]: 1 | Leucocytes CTC grade 4, number of courses [3]: 0 | Neutrophils CTC grade 1, number of courses [3]: 0 | Neutrophils CTC grade 2, number of courses [3]: 4 | Neutrophils CTC grade 3, number of courses [3]: 1 | Neutrophils CTC grade 4, number of courses [3]: 0 | Platelets CTC grade 1, number of courses [3]: 4 | Platelets CTC grade 2, number of courses [3]: 2 | Platelets CTC grade 3, number of courses [3]: 1 | Platelets CTC grade 4, number of courses [3]: 0 | ANC nadir, range (1.2 mg m-2 day-1): 0.08-5.6 x 109 l-1 | grade 3-4 neutropenia, courses (1.2 mg m-2 day-1): 7/15 | grade 3-4 thrombocytopenia, courses (1.2 mg m-2 day-1): 6/15 | median ANC nadir (1.2 mg m-2 day-1): 1.29e+09 L⁻¹ | median platelet nadir (1.2 mg m-2 day-1): 7.4e+10 L⁻¹ | platelet nadir, range (1.2 mg m-2 day-1): 33-379 x 109 l-1 | subsequent courses postponed owing to prolonged myelosuppression (1.2 mg m-2 day-1): 6/15 | Leucocytes CTC grade 1, number of courses [4]: 1 | Leucocytes CTC grade 2, number of courses [4]: 1 | Leucocytes CTC grade 3, number of courses [4]: 4 | Leucocytes CTC grade 4, number of courses [4]: 2 | Neutrophils CTC grade 1, number of courses [4]: 2 | Neutrophils CTC grade 2, number of courses [4]: 2 | Neutrophils CTC grade 3, number of courses [4]: 1 | Neutrophils CTC grade 4, number of courses [4]: 6 | Platelets CTC grade 1, number of courses [4]: 0 | Platelets CTC grade 2, number of courses [4]: 1 | Platelets CTC grade 3, number of courses [4]: 6 | Platelets CTC grade 4, number of courses [4]: 0 | Day nadir, thrombocytopenia (range) [5]: 15 (10-19) day | Median day of occurrence of grade 3-4 thrombocytopenia (range) [5]: 15 (15-15) day | Median number of days from grade 3-4 to recovery > grade 2 thrombocytopenia (range) [5]: 7 (2-8) days | Day nadir, neutropenia (range) [6]: 22 (13-22) day | Median day of occurrence of grade 3-4 neutropenia (range) [6]: 15 (10-19) day | Median number of days from grade 3-4 to recovery > grade 2 neutropenia (range) [6]: 10 (1_10) days | ANC nadir, range (1.5 mg m-2 day-1): 0.01-1.7 x 109 l-1 | grade 3-4 neutropenia, courses (1.5 mg m-2 day-1): 13/15 | grade 3-4 neutropenia, per cent of courses (1.5 mg m-2 day-1): 86% | median ANC nadir (1.5 mg m-2 day-1): 9e+07 L⁻¹ | median platelet nadir (1.5 mg m-2 day-1): 6.2e+10 L⁻¹ | platelet nadir, range (1.5 mg m-2 day-1): 10-116 x 109 l-1 | thrombocytopenia complicated by gastrointestinal bleeding (1.5 mg m-2 day-1): two | thrombocytopenia grade 3-4, courses (1.5 mg m-2 day-1): 7/15 | thrombocytopenia grade 3-4, per cent of courses (1.5 mg m-2 day-1): 46% | treatment delay, courses (1.5 mg m-2 day-1): 5 of the 15 courses | Leucocytes CTC grade 1, number of courses [7]: 0 | Leucocytes CTC grade 2, number of courses [7]: 9 | Leucocytes CTC grade 3, number of courses [7]: 3 | Leucocytes CTC grade 4, number of courses [7]: 3 | Neutrophils CTC grade 1, number of courses [7]: 2 | Neutrophils CTC grade 2, number of courses [7]: 0 | Neutrophils CTC grade 3, number of courses [7]: 2 | Neutrophils CTC grade 4, number of courses [7]: 11 | Platelets CTC grade 1, number of courses [7]: 2 | Platelets CTC grade 2, number of courses [7]: 6 | Platelets CTC grade 3, number of courses [7]: 4 | Platelets CTC grade 4, number of courses [7]: 3 | Day nadir, thrombocytopenia (range) [8]: 15 (13 15) day | Median day of occurrence of grade 3-4 thrombocytopenia (range) [8]: 15 (10-15) day | Median number of days from grade 3-4 to recovery > grade 2 thrombocytopenia (range) [8]: 8 (5-12) days | Day nadir, neutropenia (range) [9]: 15 (13 -22) day | Median day of occurrence of grade 3-4 neutropenia (range) [9]: 10 (5-25) day | Median number of days from grade 3-4 to recovery > grade 2 neutropenia (range) [9]: 11 (4-25) days | infectious complications (1.5 mg m-2 day-1, two life-threatening septic): Three | maximal tolerated dose (30 min i.v. infusion daily x 5, every 3 weeks): 1.2 mg m-2 day-1 | severity of nausea and vomiting (CTC grade): never worse than grade 1-2 | cumulative myelotoxicity (all dose levels): not observed | mild headache, courses (all dose levels): eight | mild headache, per cent of courses (all dose levels): 12% | nausea, per cent of given courses (all dose levels): 44% | other non-haematological toxicities (all dose levels): no diarrhoea, mucositis, liver or renal toxicity | vomiting, per cent of given courses (all dose levels): 22% | nausea, number of given courses (all dose levels, 67 courses): 30 courses | vomiting, number of given courses (all dose levels, 67 courses): 15 courses | dose-limiting toxicities (at 1.5 mg m-2 day-1): neutropenia and thrombocytopenia | myelotoxicity (first two dose levels (0.3, 0.6 mg m-2 day-1)): No myelotoxicity | alopecia grade 1 (highest two dose levels): three | anaemia (in vivo): occurred frequently but was never severe | recommended dose for phase II studies (x 5 every 3 weeks): 1.2 mg m-2

— publication PMC2074382 (British Journal of Cancer, 1996)
